How the values were obtained:
CCV in CCO cells = assay: Virus titration assay (TCID50) after kaempferol treatment; type: cell-based, Channel catfish virus (CCV, Ictalurid herpesvirus 1); conditions: increasing concentration 2.5-15 μg/mL, 24 and 36 h post CCV infection
Description: The CCO cells were infected with the CCV at 10^3 TCID50/ml at 28°C for 1 h. Then, the cell culture medium was replaced using isopycnic DMEM medium containing various concentrations kaempferol (2.5, 5, 7.5, 10, 12.5, and 15 μg/mL). The cells without exposure to kaempferol and CCV were set as the mock control. CCV-infected cells served as a negative control. 24 and 36 h post-infection, the cells were collected and subjected to the RT-qPCR and western blot analysis for the viral gene and protein expression. Meanwhile, the cells were treated as described above for the determination of virus titer. The supernatant and cell pellets were collected at 24 and 36 h post-infection and the TCID50 was used to evaluate the viral loads of intracellular and extracellular.
Measurement of viral titer was described previously ([5]). […]
Figure 3 The anti-CCV activity by different concentration of kaempferol in vitro. […] The relative expression levels of the CCV ORF 39 and ORF 59 genes were evaluated by RT-qPCR at 24 h (A) and 36 h (B) post-infection. […] The cells were collected at 24 h (E) and 36 h (F) after infection and CCV ORF 39 and ORF59 proteins and cellular GADPH were analyzed by western blot. (G) The intracellular and released CCV virions separated from cell lysates and supernatants at 24 h and 36 h post infection were analyzed by viral titer. […] The p value was determined by *p < 0.05, **p < 0.01.

[1] = system: CCV ORF 39 and ORF 59 proteins in CCO cells; assay: Western blot of CCV ORF 39 and ORF 59 proteins; type: cell-based, Channel catfish virus (CCV, Ictalurid herpesvirus 1)
Description: To test the anti-CCV effect of tested compounds in the preliminary screening, CCO cells were seeded in 24-well plates and cultured to reach approximately 90% confluence in each well at 28°C. Subsequently, the cells were infected with the CCV at 10^3 TCID50/ml at 28°C for 1 h. After that, the cell culture medium was replaced using an isopycnic DMEM medium containing the maximum safe concentration of indicated compounds. CCV-infected cells treated with DMSO served as a negative control, whereas CCV-infected cells treated with acyclovir (2.5 μg/mL) served as a positive control ([33]). After 36 h treatment, cell lysates were collected to test the CCV gene expression by the RT-qPCR, and the percentage inhibition of CCV infection by individual compound was calculated. According to the percentage inhibition results, we further detected the antiviral activity of kaempferol at maximum safe concentration by viral cytopathic effects (CPE) and western blot analysis. […]
For the western blot assay, firstly, cells were lysed with cell lysis buffer (Beyotime, China), and then the concentrations of protein samples collected from cell lysates protein were determined using the Enhanced BCA Protein Assay Kit (Beyotime, China). […] Finally, the signals were detected using an ECL kit (Beyotime, China) according to the manufacturer’s instructions.

SMILES: O=c1c(O)c(-c2ccc(O)cc2)oc2cc(O)cc(O)c12 [Kaempferol]
- intracellular and progeny viral loads (viral titer) (CCV in CCO cells): dramatically reduced
- viral protein (CCV ORF 39, ORF 59) level, western blot ([1]; kaempferol 10 μg/mL to 15 μg/mL, 24 and 36 h): nearly undetectable
- expression of viral proteins (CCV ORF 39, ORF 59), western blot ([1]; maximum safe concentration (47.53 μg/mL), 36 h post-infection): suppressed the expression of viral proteins

— PMC10725991, “Kaempferol is a novel antiviral agent against channel catfish virus infection through blocking viral attachment and penetration in vitro” (Frontiers in Veterinary Science, 2023)
